Values joined by “and” are separate entries in the source; they are usually repeats but may differ in a detail not shown here. Equal entries are not always repeated. Inconclusive results and toxic doses are left out.
Test system: BDF1 mice, P388 leukemia ip, median survival T/C
Assay: NCI In Vivo Anticancer Drug Screen. Data for tumor model P388 Leukemia (intraperitoneal) in B6D2F1 (BDF1) mice
Conditions: endpoint: median survival time, higher = longer survival
Summary of the method: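 Reported as T/C, where T is the survival measurement in dosed animals and C the same measurement in vehicle controls.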

[1] = dose: 50.0 mg/kg/injection, schedule: Q04DX003 (ip), vehicle: saline
[2] = dose: 100.0 mg/kg/injection, schedule: Q01DX009 (ip), vehicle: saline with Tween-80
[3] = dose: 200.0 mg/kg/injection, schedule: Q01DX009 (ip), vehicle: saline with Tween-80
[4] = dose: 400.0 mg/kg/injection, schedule: Q01DX009 (ip), vehicle: saline with Tween-80
[5] = dose: 25.0 mg/kg/injection, schedule: Q01DX009 (ip), vehicle: saline with Tween-80
[6] = dose: 50.0 mg/kg/injection, schedule: Q01DX009 (ip), vehicle: saline with Tween-80
[7] = dose: 100.0 mg/kg/injection, schedule: Q04DX003 (ip), vehicle: saline with Tween-80
[8] = dose: 200.0 mg/kg/injection, schedule: Q04DX003 (ip), vehicle: saline with Tween-80
[9] = dose: 400.0 mg/kg/injection, schedule: Q04DX003 (ip), vehicle: saline with Tween-80
[10] = dose: 100.0 mg/kg/injection, schedule: Q01DX009 (ip), vehicle: saline
[11] = dose: 200.0 mg/kg/injection, schedule: Q01DX009 (ip), vehicle: saline
[12] = dose: 100.0 mg/kg/injection, schedule: Q04DX003 (ip), vehicle: saline sonified
[13] = dose: 200.0 mg/kg/injection, schedule: Q04DX003 (ip), vehicle: saline sonified
[14] = dose: 400.0 mg/kg/injection, schedule: Q04DX003 (ip), vehicle: saline sonified
[15] = dose: 25.0 mg/kg/injection, schedule: Q01DX009 (ip), vehicle: saline
[16] = dose: 50.0 mg/kg/injection, schedule: Q01DX009 (ip), vehicle: saline
[17] = dose: 100.0 mg/kg/injection, schedule: Q04DX003 (ip), vehicle: saline
[18] = dose: 200.0 mg/kg/injection, schedule: Q04DX003 (ip), vehicle: saline
[19] = dose: 400.0 mg/kg/injection, schedule: Q04DX003 (ip), vehicle: saline

For Oc1ccccc1OB(Oc1ccccc1O)N(CCCl)CCCl, the T/C (dose: 8.1 mg/kg/injection, schedule: Q01DX009 (ip), vehicle: Klucel (hydroxypropylcellulose) (HPC)) was 122 % of control, the T/C (dose: 16.5 mg/kg/injection, schedule: Q04DX003 (ip), vehicle: saline) was 86 % of control and the T/C (dose: 18.5 mg/kg/injection, schedule: Q01DX009 (ip), vehicle: Klucel (hydroxypropylcellulose) (HPC)) was 170 % of control. The T/C (dose: 24.75 mg/kg/injection, schedule: Q04DX003 (ip), vehicle: saline) was 150 % of control, the T/C (dose: 28.12 mg/kg/injection, schedule: Q01DX009 (ip), vehicle: Klucel (hydroxypropylcellulose) (HPC)) was 190 % of control and 195 % of control and the T/C (dose: 40.0 mg/kg/injection, schedule: Q01DX009 (ip), vehicle: Klucel (hydroxypropylcellulose) (HPC)) was 165 % of control. For the same molecule, the T/C (dose: 49.5 mg/kg/injection, schedule: Q04DX003 (ip), vehicle: saline) was 150 % of control and the T/C [1] was 119 % of control.

In the case of COc1cccc(/C=N\NC(=O)C(C)SC(C)C(=O)N/N=C/c2cccc(OC)c2)c1 (stereo unspecified), the T/C [2] is reported as 100 % of control, the T/C [3] is reported as 104 % of control and the T/C [4] is reported as 104 % of control.

With O=C1C(=C(C(F)(F)F)C(F)(F)F)C2CCC1C2 (stereo unspecified) the T/C (dose: 6.25 mg/kg/injection, schedule: Q04DX003 (ip), vehicle: saline with Tween-80) was 110 % of control, the T/C (dose: 12.5 mg/kg/injection, schedule: Q04DX003 (ip), vehicle: saline with Tween-80) was 100 % of control and the T/C (dose: 25.0 mg/kg/injection, schedule: Q04DX003 (ip), vehicle: saline with Tween-80) was 90 % of control.

BrC1CC(Br)c2c1c1c(c3c2C(Br)CC3Br)C(Br)CC1Br (stereo unspecified) was tested, and the T/C [3] was 90 % of control.

In the case of CCCCCCCCCCCCCCCC(=O)N(c1ccc(NC(=O)Nc2ccc(N(C(=O)CCCCCCCCCCCCCCC)C(C)CCCN(CC)CC)cc2)cc1)C(C)CCCN(CC)CC (stereo unspecified), the T/C (dose: 12.5 mg/kg/injection, schedule: Q01DX009 (ip), vehicle: saline with Tween-80) is reported as 94 % of control, the T/C [5] is reported as 87 % of control and the T/C [6] is reported as 97 % of control. For the same molecule, the T/C [7] was 93 % of control, the T/C [8] was 99 % of control and the T/C [9] was 102 % of control.

In the case of c1ccc(CN2CCN(Cc3ccccc3)C2c2ccccc2)cc1, the T/C [5] is reported as 103 % of control, the T/C [6] is reported as 97 % of control and the T/C (dose: 50.0 mg/kg/injection, schedule: Q04DX003 (ip), vehicle: saline with Tween-80) is reported as 107 % of control. For the same molecule, the T/C [2] was 97 % of control, the T/C [7] was 107 % of control and the T/C [3] was 104 % of control. The T/C [8] was 103 % of control, the T/C [4] was 106 % of control and the T/C [9] was 96 % of control.

In the case of Cc1cc(=O)[nH]c(N/N=C/c2ccc(O)cc2)n1, the T/C (dose: 75.0 mg/kg/injection, schedule: Q01DX009 (ip), vehicle: Klucel (hydroxypropylcellulose) (HPC)) is reported as 104 % of control, the T/C (dose: 150.0 mg/kg/injection, schedule: Q01DX009 (ip), vehicle: Klucel (hydroxypropylcellulose) (HPC)) is reported as 109 % of control and the T/C (dose: 300.0 mg/kg/injection, schedule: Q01DX009 (ip), vehicle: Klucel (hydroxypropylcellulose) (HPC)) is reported as 95 % of control.

With CC1(C)OC(CI)C(COS(C)(=O)=O)O1 (stereo unspecified) the T/C [6] was 100 % of control, the T/C [2] was 91 % of control and the T/C [3] was 112 % of control.

In the case of NC(CSC(c1ccccc1)(c1ccccc1)c1ccccc1)C(=O)NCC(=O)O (stereo unspecified), the T/C (dose: 177.0 mg/kg/injection, schedule: Q01DX009 (ip), vehicle: saline with Tween-80) is reported as 111 % of control and the T/C [4] is reported as 107 % of control.

CCN(CC)CCOC(=O)CSC1C2CC3C(C2)C31 (stereo unspecified) was tested, and the T/C (dose: 50.0 mg/kg/injection, schedule: Q01DX009 (ip), vehicle: suspension in saline) was 106 % of control, the T/C (dose: 100.0 mg/kg/injection, schedule: Q01DX001 (ip), vehicle: suspension in saline) was 93 % of control and the T/C (dose: 100.0 mg/kg/injection, schedule: Q01DX009 (ip), vehicle: suspension in saline) was 107 % of control. The T/C (dose: 200.0 mg/kg/injection, schedule: Q01DX001 (ip), vehicle: suspension in saline) was 101 % of control, the T/C (dose: 200.0 mg/kg/injection, schedule: Q01DX009 (ip), vehicle: suspension in saline) was 109 % of control and the T/C (dose: 400.0 mg/kg/injection, schedule: Q01DX001 (ip), vehicle: suspension in saline) was 102 % of control. The T/C (dose: 400.0 mg/kg/injection, schedule: Q01DX009 (ip), vehicle: suspension in saline) was 111 % of control and the T/C (dose: 600.0 mg/kg/injection, schedule: Q01DX001 (ip), vehicle: suspension in saline) was 105 % of control.

C=C[P+](c1ccccc1)(c1ccccc1)c1ccccc1 was tested, and the T/C (dose: 1.0 mg/kg/injection, schedule: Q01DX009 (ip), vehicle: saline) was 110 % of control, the T/C (dose: 1.5 mg/kg/injection, schedule: Q01DX010 (ip), vehicle: saline) was 95 % of control and the T/C (dose: 2.5 mg/kg/injection, schedule: Q01DX009 (ip), vehicle: saline) was 150 % of control. The T/C (dose: 3.0 mg/kg/injection, schedule: Q01DX010 (ip), vehicle: saline) was 116 % of control, the T/C (dose: 3.3 mg/kg/injection, schedule: Q04DX003 (ip), vehicle: saline) was 120 % of control and the T/C (dose: 3.7 mg/kg/injection, schedule: Q01DX009 (ip), vehicle: saline) was 89 % of control. The T/C (dose: 5.0 mg/kg/injection, schedule: Q01DX009 (ip), vehicle: saline) was 95 % of control.

With CCCCCCCCC(O)CCC (stereo unspecified) the T/C [10] was 100 % of control and the T/C [11] was 109 % of control.

CCCC(Sc1nc(N)nc2nc[nH]c12)C(=O)O (stereo unspecified) was tested, and the T/C (dose: 100.0 mg/kg/injection, schedule: Q01DX009 (ip), vehicle: saline sonified) was 115 % of control, the T/C [12] was 109 % of control and the T/C [13] was 118 % of control. For the same molecule, the T/C (dose: 400.0 mg/kg/injection, schedule: Q01DX009 (ip), vehicle: saline sonified) was 100 % of control and the T/C [14] was 109 % of control.

In the case of CC[C@H]1CN(C)[C@H]2Cc3c([nH]c4ccccc34)C(=O)C[C@H]1C2C(=O)OC (stereo partly specified), the T/C (dose: 0.25 mg/kg/injection, schedule: Q01DX009 (ip), vehicle: other) is reported as 86 % of control, the T/C (dose: 0.5 mg/kg/injection, schedule: Q01DX009 (ip), vehicle: other) is reported as 86 % of control and the T/C (dose: 1.0 mg/kg/injection, schedule: Q01DX009 (ip), vehicle: other) is reported as 86 % of control. For the same molecule, the T/C (dose: 2.0 mg/kg/injection, schedule: Q01DX009 (ip), vehicle: other) was 95 % of control.

With CC(=O)Nc1ccc(Cl)c(Cl)c1 the T/C [12] was 100 % of control, the T/C [7] was 90 % of control and the T/C [13] was 120 % of control. The T/C [8] was 100 % of control and the T/C [14] was 104 % of control.

With COc1cc2c(cc1OCc1ccccc1)C(C#N)N(C(=O)c1ccccc1)C=C2 (stereo unspecified) the T/C [15] was 109 % of control, the T/C (dose: 25.0 mg/kg/injection, schedule: Q04DX003 (ip), vehicle: saline) was 97 % of control and the T/C [16] was 100 % of control. For the same molecule, the T/C [1] was 95 % of control, the T/C [10] was 97 % of control and the T/C [17] was 97 % of control. The T/C [11] was 98 % of control, the T/C [18] was 88 % of control and the T/C (dose: 400.0 mg/kg/injection, schedule: Q01DX009 (ip), vehicle: saline) was 100 % of control. For the same molecule, the T/C [19] was 94 % of control.

For CC1=CC2C(C3C=CC2(C)C(=O)C3(C)Cc2ccccc2)C(C)(Cc2ccccc2)C1=O (stereo unspecified), the T/C (dose: 100.0 mg/kg/injection, schedule: Q01DX001 (ip), vehicle: Klucel (hydroxypropylcellulose) (HPC)) was 95 % of control, the T/C (dose: 200.0 mg/kg/injection, schedule: Q01DX001 (ip), vehicle: Klucel (hydroxypropylcellulose) (HPC)) was 95 % of control and the T/C (dose: 400.0 mg/kg/injection, schedule: Q01DX001 (ip), vehicle: Klucel (hydroxypropylcellulose) (HPC)) was 90 % of control.

With CCCCCCCCCCCCCCCCCCNC(=S)N/N=C/c1ccc(Cl)cc1Cl the T/C (dose: 50.0 mg/kg/injection, schedule: Q04DX003 (ip), vehicle: Klucel (hydroxypropylcellulose) (HPC)) was 105 % of control, the T/C (dose: 100.0 mg/kg/injection, schedule: Q04DX003 (ip), vehicle: Klucel (hydroxypropylcellulose) (HPC)) was 90 % of control and the T/C [7] was 100 % of control. The T/C [8] was 100 % of control and the T/C [9] was 100 % of control.

NC(Cc1ccc(O)c(I)c1)C(=O)O (stereo unspecified) was tested, and the T/C [15] was 109 % of control, the T/C [16] was 113 % of control and the T/C [1] was 110 % of control. The T/C [10] was 120 % of control, the T/C [17] was 110 % of control and the T/C [11] was 95 % of control. For the same molecule, the T/C [18] was 115 % of control and the T/C [19] was 110 % of control.

With O=C(O)C1=NNC(C(=O)O)=NN1 the T/C [16] was 98 % of control, the T/C [10] was 100 % of control and the T/C [11] was 98 % of control.

For Clc1ccccc1CCCBr, the T/C [7] was 95 % of control, the T/C [8] was 100 % of control and the T/C [9] was 105 % of control.
